What was measured:
Test in all cases: Y2H Pocket Library Screen (HAB1, X-gal)
Format in all cases: cell-based
PYR1 K59R A160C = molecular target: T1, PYR1 K59R A160C (Arabidopsis thaliana, UniProt O49686, A160C/K59R)
T1 construct: expressed in transfected cells; host or cells: S. cerevisiae Y190
Procedure, shortened: (§1)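 Mutant PYR1 variants are screened in yeast two-hybrid against HAB1, with 100 μM compound in –Leu/–Trp dextrose agar; responsiveness is judged by X-gal staining after 2 days at 30° C.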

PYR1 K59R A160S = molecular target: T2, PYR1 K59R A160S (Arabidopsis thaliana, UniProt O49686, A160S/K59R)
T2 construct: expressed in transfected cells; host or cells: S. cerevisiae Y190
Procedure, shortened: as §1

PYR1 K59R M158L = molecular target: T3, PYR1 K59R M158L (Arabidopsis thaliana, UniProt O49686, K59R/M158L)
T3 construct: expressed in transfected cells; host or cells: S. cerevisiae Y190 two-hybrid reporter strain
Procedure, shortened: as §1

PYR1 K59R V164N = molecular target: T4, PYR1 K59R V164N (Arabidopsis thaliana, UniProt O49686, K59R/V164N)
T4 construct: expressed in transfected cells; host or cells: S. cerevisiae Y190 two-hybrid reporter strain
Procedure, shortened: as §1

PYR1 K59R E141L = molecular target: T5, PYR1 K59R E141L (Arabidopsis thaliana, UniProt O49686, E141L/K59R)
T5 construct: expressed in transfected cells; host or cells: S. cerevisiae Y190 two-hybrid reporter strain
Procedure, shortened: as §1

PYR1 K59R V164Q = molecular target: T6, PYR1 K59R V164Q (Arabidopsis thaliana, UniProt O49686, K59R/V164Q)
T6 construct: expressed in transfected cells; host or cells: S. cerevisiae Y190 two-hybrid reporter strain
Procedure, shortened: as §1

PYR1 K59R L87P = molecular target: T7, PYR1 K59R L87P (Arabidopsis thaliana, UniProt O49686, K59R/L87P)
T7 construct: expressed in transfected cells; host or cells: S. cerevisiae Y190 yeast two-hybrid reporter strain
Procedure, shortened: as §1

PYR1 K59R V164L = molecular target: T8, PYR1 K59R V164L (Arabidopsis thaliana, UniProt O49686, K59R/V164L)
T8 construct: expressed in transfected cells; host or cells: S. cerevisiae Y190
Procedure, shortened: as §1

PYR1 K59R E94D = molecular target: T9, PYR1 K59R E94D (Arabidopsis thaliana, UniProt O49686, E94D/K59R)
T9 construct: expressed in transfected cells; host or cells: S. cerevisiae Y190 yeast two-hybrid reporter strain
Procedure, shortened: as §1

PYR1 K59R A160V = molecular target: T10, PYR1 K59R A160V (Arabidopsis thaliana, UniProt O49686, A160V/K59R)
T10 construct: expressed in transfected cells; host or cells: S. cerevisiae Y190
Procedure, shortened: as §1

PYR1 K59R H115N = molecular target: T11, PYR1 K59R H115N (Arabidopsis thaliana, UniProt O49686, H115N/K59R)
T11 construct: expressed in transfected cells; host or cells: S. cerevisiae Y190 two-hybrid reporter strain
Procedure, shortened: as §1

PYR1 K59R V164S = molecular target: T12, PYR1 K59R V164S (Arabidopsis thaliana, UniProt O49686, K59R/V164S)
T12 construct: expressed in transfected cells; host or cells: S. cerevisiae Y190 two-hybrid reporter strain
Procedure, shortened: as §1

PYR1 K59R A160T = molecular target: T13, PYR1 K59R A160T (Arabidopsis thaliana, UniProt O49686, A160T/K59R)
T13 construct: expressed in transfected cells; host or cells: S. cerevisiae Y190
Procedure, shortened: as §1

PYR1 K59R V164Y = molecular target: T14, PYR1 K59R V164Y (Arabidopsis thaliana, UniProt O49686, K59R/V164Y)
T14 construct: expressed in transfected cells; host or cells: S. cerevisiae Y190 two-hybrid reporter strain
Procedure, shortened: as §1

PYR1 K59R T162Y = molecular target: T15, PYR1 K59R T162Y (Arabidopsis thaliana, UniProt O49686, K59R/T162Y)
T15 construct: expressed in transfected cells; host or cells: S. cerevisiae Y190
Procedure, shortened: as §1

PYR1 K59R E141F = molecular target: T16, PYR1 K59R E141F (Arabidopsis thaliana, UniProt O49686, E141F/K59R)
T16 construct: expressed in transfected cells; host or cells: S. cerevisiae Y190 two-hybrid reporter strain
Procedure, shortened: as §1

PYR1 K59R M158I = molecular target: T17, PYR1 K59R M158I (Arabidopsis thaliana, UniProt O49686, K59R/M158I)
T17 construct: expressed in transfected cells; host or cells: S. cerevisiae Y190 two-hybrid reporter strain
Procedure, shortened: as §1

PYR1 K59R A160I = molecular target: T18, PYR1 K59R A160I (Arabidopsis thaliana, UniProt O49686, A160I/K59R)
T18 construct: expressed in transfected cells; host or cells: S. cerevisiae Y190
Procedure, shortened: as §1

PYR1 K59R V164G = molecular target: T19, PYR1 K59R V164G (Arabidopsis thaliana, UniProt O49686, K59R/V164G)
T19 construct: expressed in transfected cells; host or cells: S. cerevisiae Y190
Procedure, shortened: as §1

PYR1 K59R V83L = molecular target: T20, PYR1 K59R V83L (Arabidopsis thaliana, UniProt O49686, K59R/V83L)
T20 construct: expressed in transfected cells; host or cells: S. cerevisiae Y190 yeast two-hybrid reporter strain
Procedure, shortened: as §1

PYR1 K59R N167T = molecular target: T21, PYR1 K59R N167T (Arabidopsis thaliana, UniProt O49686, K59R/N167T)
T21 construct: expressed in transfected cells; host or cells: S. cerevisiae Y190 two-hybrid reporter strain
Procedure, shortened: as §1

PYR1 K59R E141Y = molecular target: T22, PYR1 K59R E141Y (Arabidopsis thaliana, UniProt O49686, E141Y/K59R)
T22 construct: expressed in transfected cells; host or cells: S. cerevisiae Y190 two-hybrid reporter strain
Procedure, shortened: as §1

PYR1 K59R F108V = molecular target: T23, PYR1 K59R F108V (Arabidopsis thaliana, UniProt O49686, F108V/K59R)
T23 construct: expressed in transfected cells; host or cells: S. cerevisiae Y190 yeast two-hybrid reporter strain
Procedure, shortened: as §1

PYR1 K59R F108N = molecular target: T24, PYR1 K59R F108N (Arabidopsis thaliana, UniProt O49686, F108N/K59R)
T24 construct: expressed in transfected cells; host or cells: S. cerevisiae Y190 yeast two-hybrid reporter strain
Procedure, shortened: as §1

PYR1 K59R F108Q = molecular target: T25, PYR1 K59R F108Q (Arabidopsis thaliana, UniProt O49686, F108Q/K59R)
T25 construct: expressed in transfected cells; host or cells: S. cerevisiae Y190 yeast two-hybrid reporter strain
Procedure, shortened: as §1

PYR1 K59R A89W = molecular target: T26, PYR1 K59R A89W (Arabidopsis thaliana, UniProt O49686, A89W/K59R)
T26 construct: expressed in transfected cells; host or cells: S. cerevisiae Y190 yeast two-hybrid reporter strain
Procedure, shortened: as §1

PYR1 K59R F159C = molecular target: T27, PYR1 K59R F159C (Arabidopsis thaliana, UniProt O49686, F159C/K59R)
T27 construct: expressed in transfected cells; host or cells: S. cerevisiae Y190 two-hybrid reporter strain
Procedure, shortened: as §1

PYR1 K59R F159T = molecular target: T28, PYR1 K59R F159T (Arabidopsis thaliana, UniProt O49686, F159T/K59R)
T28 construct: expressed in transfected cells; host or cells: S. cerevisiae Y190
Procedure, shortened: as §1

Measured: Threshold

T22 sequence (O49686 whole entry K59R/E141Y): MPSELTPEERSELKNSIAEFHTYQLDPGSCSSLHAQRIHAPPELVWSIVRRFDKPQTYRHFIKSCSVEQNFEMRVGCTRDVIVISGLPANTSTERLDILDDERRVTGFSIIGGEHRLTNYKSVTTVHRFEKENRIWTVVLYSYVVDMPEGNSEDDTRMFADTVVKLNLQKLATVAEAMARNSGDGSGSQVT
T22 sequence (Q9CAJ0 23-511, further chain): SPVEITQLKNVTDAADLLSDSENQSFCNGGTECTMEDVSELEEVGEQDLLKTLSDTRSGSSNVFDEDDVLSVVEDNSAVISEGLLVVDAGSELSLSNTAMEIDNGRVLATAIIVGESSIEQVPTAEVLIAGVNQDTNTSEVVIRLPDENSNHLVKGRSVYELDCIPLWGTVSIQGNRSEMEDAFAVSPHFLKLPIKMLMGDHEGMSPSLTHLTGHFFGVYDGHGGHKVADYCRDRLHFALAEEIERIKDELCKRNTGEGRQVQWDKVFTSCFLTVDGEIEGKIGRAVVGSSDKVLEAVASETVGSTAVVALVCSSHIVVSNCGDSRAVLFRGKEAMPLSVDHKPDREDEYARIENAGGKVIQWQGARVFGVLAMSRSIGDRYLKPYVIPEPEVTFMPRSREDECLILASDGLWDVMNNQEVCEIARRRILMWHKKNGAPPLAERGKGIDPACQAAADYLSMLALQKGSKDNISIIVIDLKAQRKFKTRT
T14 sequence (O49686 whole entry K59R/V164Y): as the sequence (O49686 whole entry K59R/E141Y) above, with Y141E, V164Y counted along it
T14 sequence (Q9CAJ0 23-511, stated change not applied, further chain): as the sequence (Q9CAJ0 23-511, further chain) above
T16 sequence (O49686 whole entry K59R/E141F): as the sequence (O49686 whole entry K59R/E141Y) above, with Y141F counted along it
T16 sequence (Q9CAJ0 23-511 partner): as the sequence (Q9CAJ0 23-511, further chain) above
T2 sequence (O49686 whole entry K59R/A160S): as the sequence (O49686 whole entry K59R/E141Y) above, with Y141E, A160S counted along it
T2 sequence (Q9CAJ0 23-511 partner): as the sequence (Q9CAJ0 23-511, further chain) above
T24 sequence (O49686 whole entry K59R/F108N): as the sequence (O49686 whole entry K59R/E141Y) above, with F108N, Y141E counted along it
T24 sequence (Q9CAJ0 23-511 partner): as the sequence (Q9CAJ0 23-511, further chain) above
T17 sequence (O49686 whole entry K59R/M158I): as the sequence (O49686 whole entry K59R/E141Y) above, with Y141E, M158I counted along it
T17 sequence (Q9CAJ0 23-511, further chain): as the sequence (Q9CAJ0 23-511, further chain) above
T3 sequence (O49686 whole entry K59R/M158L): as the sequence (O49686 whole entry K59R/E141Y) above, with Y141E, M158L counted along it
T3 sequence (Q9CAJ0 23-511 partner): as the sequence (Q9CAJ0 23-511, further chain) above

N#Cc1c(Cl)cccc1Cl [Dichlobenil, dichlobenil]
not listed: PYR1 K59R F108V | PYR1 K59R F108N | PYR1 K59R F108Q | PYR1 K59R A89W | PYR1 K59R F159C | PYR1 K59R F159T
100 µM: all other assays above

C#CCOc1ccc(CCNC(=O)C(OCC#C)c2ccc(Cl)cc2)cc1OC (stereo not shown) [Mandipropamid, mandipropamid]
100 µM: PYR1 K59R F108V | PYR1 K59R F108N | PYR1 K59R F108Q | PYR1 K59R A89W | PYR1 K59R F159C | PYR1 K59R F159T
